Assay results from patent publication US20020137929A1, “1 - (3-heterocyclylphenyl) isothiourea, -isourea, -guanidine and -amidine herbicidal agents” (Intellectual Property Department, BASF Aktiengesellschaft, priority 1998, published 2002).

Key:
ABUTH (Velvetleaf) = experiment: Postemergence herbicidal evaluation; assay type: in vivo, Abutilon theophrasti; conditions: postemergence
Procedure, shortened: (§1)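 Seedlings grown about two weeks were sprayed at 40 psi with compound dispersed in 50/50 acetone/water plus 0.5% TWEEN 20, at about 0.0156 to 0.500 kg/ha. Plants were kept in the greenhouse and scored 4–5 weeks later on a 0–9 visual scale against untreated controls.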

AMBEL (Ragweed, Common) = experiment: Postemergence herbicidal evaluation; assay type: in vivo, Ambrosia artemisifolia; conditions: postemergence
Procedure, shortened: as §1

[1] = test system: CHEAL (Lambsquarters, Common); experiment: Postemergence herbicidal evaluation; assay type: in vivo, Chenopodium album; conditions: postemergence
Procedure, shortened: as §1

GALAP (Galium) [2] = experiment: Postemergence herbicidal evaluation; assay type: in vivo, Galium aparine; conditions: postemergence
Procedure, shortened: as §1

[3] = test system: IPOHE (Morningglory, Ivyleaf); experiment: Postemergence herbicidal evaluation; assay type: in vivo, Ipomoea hederacea; conditions: postemergence
Procedure, shortened: as §1

SETVI (Foxtail, Green) [4] = experiment: Postemergence herbicidal evaluation; assay type: in vivo, Setaria viridis; conditions: postemergence
Procedure, shortened: as §1

[5] = test system: GLXMAW (Soybean, Williams); experiment: Postemergence herbicidal evaluation; assay type: in vivo, Glycine max, (L.) Merr. cv Williams; conditions: postemergence
Procedure, shortened: as §1

ZEAMX (Corn, Field) = experiment: Postemergence herbicidal evaluation; assay type: in vivo, Zea mays; conditions: postemergence
Procedure, shortened: as §1

[6] = test system: CHEAL (Lambsquarters, Common); experiment: Preemergence herbicidal evaluation; assay type: in vivo, Chenopodium album; conditions: rated 4-5 weeks after treatment
Procedure, shortened: (§2)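 Herbicidal effect scored visually, 0-9, at 4 to 5 weeks against a control; compound applied preemergence by aqueous acetone spray to seeded soil at about 0.0156 to 0.500 kg/ha.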

GALAP (Galium) [7] = experiment: Preemergence herbicidal evaluation; assay type: in vivo, Galium aparine; conditions: rated 4-5 weeks after treatment
Procedure, shortened: as §2

[8] = test system: IPOHE (Morningglory, Ivyleaf); experiment: Preemergence herbicidal evaluation; assay type: in vivo, Ipomoea hederacea; conditions: rated 4-5 weeks after treatment
Procedure, shortened: as §2

ECHCG (Barnyardgrass) = experiment: Preemergence herbicidal evaluation; assay type: in vivo, Echinochloa crus-galli; conditions: rated 4-5 weeks after treatment
Procedure, shortened: as §2

SETVI (Foxtail, Green) [9] = experiment: Preemergence herbicidal evaluation; assay type: in vivo, Setaria viridis; conditions: rated 4-5 weeks after treatment
Procedure, shortened: as §2

[10] = test system: GLXMAW (Soybean, Williams); experiment: Preemergence herbicidal evaluation; assay type: in vivo, Glycine max, (L.) Merr. cv Williams; conditions: rated 4-5 weeks after treatment
Procedure, shortened: as §2

CYPIR (Rice Flatsedge) = experiment: Preemergence weed control under flooded paddy conditions; assay type: in vivo, Cyperus iria; conditions: rated 3-4 weeks after treatment
Procedure, shortened: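 Visual injury scored 0-9 against control three to four weeks post-treatment, greenhouse-grown. Application: acetone/water (50/50) solutions dosed directly into flood water (1.5-3 cm over silt loam, planted top 0.5 cm), roughly 0.0313 to 0.500 kg/ha active ingredient.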

CYPSE (Flatsedge) = experiment: as above; assay type: in vivo, Cyperus serotinus; conditions: rated 3-4 weeks after treatment
Procedure, shortened: (§3)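 Greenhouse paddy assay. Acetone/water (50/50 v/v) solutions dosed into flood water, equivalent to about 0.0313 to 0.500 kg/ha active ingredient, over seeds planted 0.5 cm deep in silt loam. Score: 0-9 visual, based on stand, vigor, malformation, size and chlorosis, 3 to 4 weeks after treatment.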

[11] = test system: SAGPY (Arrowhead (Pygmaea)); experiment: as above; assay type: in vivo, Sagittaria pygmaea; conditions: rated 3-4 weeks after treatment
Procedure, shortened: as §3

With CCOC(=O)CN1C(=O)C(Cc2ccccc2OCC(=O)O)S/C1=N/c1cc(-n2c(=O)cc(C(F)(F)F)n(C)c2=O)c(F)cc1Cl (centres unmarked) [Compound 113, 5-[o-(Carboxymethoxy)benzyl]-2-{{2-chloro-5-[3,6-dihydro-3-methyl-2,6-dioxo-4-(trifluoromethyl)-1(2H)-pyrimidinyl]-4-fluorophenyl}imino}-4-oxo-3-thiazolidineacetic acid, 3-ethyl ester] the “Herbicidal rating ABUTH” value (ABUTH (Velvetleaf); rate 0.0158 kg/ha) was 9.0, the “Herbicidal rating ABUTH” value (ABUTH (Velvetleaf); rate 0.0315 kg/ha) was 9.0 and the “Herbicidal rating ABUTH” value (ABUTH (Velvetleaf); rate 0.0630 kg/ha) was 9.0. The “Herbicidal rating AMBEL” value (AMBEL (Ragweed, Common); rate 0.0158 kg/ha) was 5.0, the “Herbicidal rating AMBEL” value (AMBEL (Ragweed, Common); rate 0.0315 kg/ha) was 9.0 and the “Herbicidal rating AMBEL” value (AMBEL (Ragweed, Common); rate 0.0630 kg/ha) was 9.0. The “Herbicidal rating CHEAL” value ([1]; rate 0.0158 kg/ha) was 5.0, the “Herbicidal rating CHEAL” value ([1]; rate 0.0315 kg/ha) was 4.0 and the “Herbicidal rating CHEAL” value ([1]; rate 0.0630 kg/ha) was 7.0. The “Herbicidal rating GALAP” value (GALAP (Galium) [2]; rate 0.0158 kg/ha) was 1.0, the “Herbicidal rating GALAP” value (GALAP (Galium) [2]; rate 0.0315 kg/ha) was 0.0 and the “Herbicidal rating GALAP” value (GALAP (Galium) [2]; rate 0.0630 kg/ha) was 2.0. The “Herbicidal rating IPOHE” value ([3]; rate 0.0158 kg/ha) was 7.0, the “Herbicidal rating IPOHE” value ([3]; rate 0.0315 kg/ha) was 9.0 and the “Herbicidal rating IPOHE” value ([3]; rate 0.0630 kg/ha) was 9.0. For the same molecule, the “Herbicidal rating SETVI” value (SETVI (Foxtail, Green) [4]; rate 0.0158 kg/ha) was 3.0, the “Herbicidal rating SETVI” value (SETVI (Foxtail, Green) [4]; rate 0.0630 kg/ha) was 3.0 and the “Herbicidal rating GLXMAW” value ([5]; rate 0.0158 kg/ha) was 4.5. The “Herbicidal rating GLXMAW” value ([5]; rate 0.0315 kg/ha) was 5.5, the “Herbicidal rating GLXMAW” value ([5]; rate 0.0630 kg/ha) was 5.5 and the “Herbicidal rating ZEAMX” value (ZEAMX (Corn, Field); rate 0.0158 kg/ha) was 4.0. For the same molecule, the “Herbicidal rating ZEAMX” value (ZEAMX (Corn, Field); rate 0.0315 kg/ha) was 4.5, the “Herbicidal rating ZEAMX” value (ZEAMX (Corn, Field); rate 0.0630 kg/ha) was 4.5 and the “Preemergence herbicidal rating CHEAL” value ([6]; rate 0.0156 kg/ha) was 6.0. For the same molecule, the “Preemergence herbicidal rating CHEAL” value ([6]; rate 0.0313 kg/ha) was 7.0, the “Preemergence herbicidal rating CHEAL” value ([6]; rate 0.0625 kg/ha) was 0.0 and the “Preemergence herbicidal rating CHEAL” value ([6]; rate 0.1250 kg/ha) was 9.0. For the same molecule, the “Preemergence herbicidal rating CHEAL” value ([6]; rate 0.2500 kg/ha) was 9.0, the “Preemergence herbicidal rating GALAP” value (GALAP (Galium) [7]; rate 0.0156 kg/ha) was 0.0 and the “Preemergence herbicidal rating GALAP” value (GALAP (Galium) [7]; rate 0.0313 kg/ha) was 0.0. The “Preemergence herbicidal rating GALAP” value (GALAP (Galium) [7]; rate 0.0625 kg/ha) was 0.0, the “Preemergence herbicidal rating GALAP” value (GALAP (Galium) [7]; rate 0.1250 kg/ha) was 1.0 and the “Preemergence herbicidal rating GALAP” value (GALAP (Galium) [7]; rate 0.2500 kg/ha) was 3.0. The “Preemergence herbicidal rating IPOHE” value ([8]; rate 0.0156 kg/ha) was 0.0, the “Preemergence herbicidal rating IPOHE” value ([8]; rate 0.0313 kg/ha) was 0.0 and the “Preemergence herbicidal rating IPOHE” value ([8]; rate 0.0625 kg/ha) was 0.0. For the same molecule, the “Preemergence herbicidal rating IPOHE” value ([8]; rate 0.1250 kg/ha) was 0.0, the “Preemergence herbicidal rating IPOHE” value ([8]; rate 0.2500 kg/ha) was 1.0 and the “Preemergence herbicidal rating ECHCG” value (ECHCG (Barnyardgrass); rate 0.0156 kg/ha) was 0.0. For the same molecule, the “Preemergence herbicidal rating ECHCG” value (ECHCG (Barnyardgrass); rate 0.0313 kg/ha) was 0.0, the “Preemergence herbicidal rating ECHCG” value (ECHCG (Barnyardgrass); rate 0.0625 kg/ha) was 0.0 and the “Preemergence herbicidal rating ECHCG” value (ECHCG (Barnyardgrass); rate 0.1250 kg/ha) was 0.0. For the same molecule, the “Preemergence herbicidal rating ECHCG” value (ECHCG (Barnyardgrass); rate 0.2500 kg/ha) was 0.0, the “Preemergence herbicidal rating SETVI” value (SETVI (Foxtail, Green) [9]; rate 0.0156 kg/ha) was 0.0 and the “Preemergence herbicidal rating SETVI” value (SETVI (Foxtail, Green) [9]; rate 0.0313 kg/ha) was 0.0. For the same molecule, the “Preemergence herbicidal rating SETVI” value (SETVI (Foxtail, Green) [9]; rate 0.0625 kg/ha) was 0.0, the “Preemergence herbicidal rating SETVI” value (SETVI (Foxtail, Green) [9]; rate 0.1250 kg/ha) was 0.0 and the “Preemergence herbicidal rating SETVI” value (SETVI (Foxtail, Green) [9]; rate 0.2500 kg/ha) was 1.0. For the same molecule, the “Preemergence herbicidal rating GLXMAW” value ([10]; rate 0.0156 kg/ha) was 0.0, the “Preemergence herbicidal rating GLXMAW” value ([10]; rate 0.0313 kg/ha) was 1.0 and the “Preemergence herbicidal rating GLXMAW” value ([10]; rate 0.0625 kg/ha) was 0.0. The “Preemergence herbicidal rating GLXMAW” value ([10]; rate 0.1250 kg/ha) was 0.0, the “Preemergence herbicidal rating GLXMAW” value ([10]; rate 0.2500 kg/ha) was 2.0 and the “CYPIR herbicidal effect rating” value (CYPIR (Rice Flatsedge); 0.0313 kg/ha) was 3.0. The “CYPIR herbicidal effect rating” value (CYPIR (Rice Flatsedge); 0.0625 kg/ha) was 5.0, the “CYPIR herbicidal effect rating” value (CYPIR (Rice Flatsedge); 0.1250 kg/ha) was 5.0 and the “CYPIR herbicidal effect rating” value (CYPIR (Rice Flatsedge); 0.2500 kg/ha) was 6.0. For the same molecule, the “CYPSE herbicidal effect rating” value (CYPSE (Flatsedge); 0.0313 kg/ha) was 0.0, the “CYPSE herbicidal effect rating” value (CYPSE (Flatsedge); 0.0625 kg/ha) was 0.0 and the “CYPSE herbicidal effect rating” value (CYPSE (Flatsedge); 0.1250 kg/ha) was 0.0. For the same molecule, the “CYPSE herbicidal effect rating” value (CYPSE (Flatsedge); 0.2500 kg/ha) was 0.0, the “SAGPY herbicidal effect rating” value ([11]; 0.0313 kg/ha) was 4.0 and the “SAGPY herbicidal effect rating” value ([11]; 0.0625 kg/ha) was 6.0. For the same molecule, the “SAGPY herbicidal effect rating” value ([11]; 0.1250 kg/ha) was 9.0 and the “SAGPY herbicidal effect rating” value ([11]; 0.2500 kg/ha) was 9.0.
